From PMC10518257 (Nature Cancer, 2023)
Several values for one entry are separate records, joined by “and”; a condition that tells them apart may be missing. Equal entries are not always repeated. Where two headings read alike, the source gives them in different places.

Tests used:
[1] = target: T1, panel of 255 (vepafestinib) or 256 (all other inhibitors) recombinant kinases (Homo sapiens, UniProt P16234); experiment: Kinase selectivity profiling at a single concentration (Carna Biosciences); assay type: biochemical; conditions: 23 nM
T1 construct: purchased Carna Biosciences

[2] = target: T2, panel of 255 (vepafestinib) or 256 (all other inhibitors) recombinant kinases (Homo sapiens, UniProt P35916); experiment: as above; assay type: biochemical; conditions: 23 nM
T2 construct: purchased Carna Biosciences

[3] = target: panel of 255 (vepafestinib) or 256 (all other inhibitors) recombinant kinases; experiment: as above; assay type: biochemical; conditions: 23 nM, panel of 255 recombinant kinases
[4] = system: Ba/F3 cells expressing KIF5B–RET^G810S; experiment: Growth inhibition assay in Ba/F3 cells (CellTiter-Glo, 72 h); assay type: cell-based; conditions: replicate Sets 1-3
[5] = system: Ba/F3 cells expressing KIF5B–RET^V804M; experiment: as above; assay type: cell-based; conditions: replicate sets
[6] = system: phosphorylation of RET^G810R, RET^G810S and RET^G810C in Ba/F3 cells; experiment: Western blotting of RET phosphorylation in Ba/F3 KIF5B–RET cells; assay type: cell-based; conditions: 1 h, western blot, 100 nM
[7] = system: LUAD-0002AS1 cells (KIF5B::RET); experiment: Dose-response western blotting, EC50 for inhibition of protein phosphorylation; assay type: cell-based; conditions: Homo sapiens, LUAD-0002AS1, 2 h, densitometry
HBECp53-EV cells = experiment: Growth inhibition (alamarBlue, 96 h); assay type: cell-based, human; conditions: for raw viability signal (Source Data Fig. 3b-c): HBEC-EV, replicate sets
LC-2/ad cells = experiment: Growth inhibition (alamarBlue, 96 h); assay type: cell-based, human; conditions: for raw viability signal (Source Data Fig. 3b-c): LC-2/Ad, replicate sets
LUAD-0057BS1 cells = experiment: Growth inhibition (alamarBlue, 96 h); assay type: cell-based, human; conditions: for raw viability signal (Source Data Fig. 3b-c): LUAD-0057BS1, replicate sets
LUAD-0086AS3 cells = experiment: Growth inhibition (alamarBlue, 96 h); assay type: cell-based, human; conditions: for raw viability signal (Source Data Fig. 3b-c): LUAD-0086AS3 (n=1, 3 replicates)
LUAD-0087AS2 cells = experiment: Growth inhibition (alamarBlue, 96 h); assay type: cell-based, human; conditions: for raw viability signal (Source Data Fig. 3b-c): LUAD-0087AS2, replicate sets
[8] = Homo sapiens, 96 h, read-out: IC50 for Inhibition of Growth (95% CI)

T2 sequence (P35916 25-1363): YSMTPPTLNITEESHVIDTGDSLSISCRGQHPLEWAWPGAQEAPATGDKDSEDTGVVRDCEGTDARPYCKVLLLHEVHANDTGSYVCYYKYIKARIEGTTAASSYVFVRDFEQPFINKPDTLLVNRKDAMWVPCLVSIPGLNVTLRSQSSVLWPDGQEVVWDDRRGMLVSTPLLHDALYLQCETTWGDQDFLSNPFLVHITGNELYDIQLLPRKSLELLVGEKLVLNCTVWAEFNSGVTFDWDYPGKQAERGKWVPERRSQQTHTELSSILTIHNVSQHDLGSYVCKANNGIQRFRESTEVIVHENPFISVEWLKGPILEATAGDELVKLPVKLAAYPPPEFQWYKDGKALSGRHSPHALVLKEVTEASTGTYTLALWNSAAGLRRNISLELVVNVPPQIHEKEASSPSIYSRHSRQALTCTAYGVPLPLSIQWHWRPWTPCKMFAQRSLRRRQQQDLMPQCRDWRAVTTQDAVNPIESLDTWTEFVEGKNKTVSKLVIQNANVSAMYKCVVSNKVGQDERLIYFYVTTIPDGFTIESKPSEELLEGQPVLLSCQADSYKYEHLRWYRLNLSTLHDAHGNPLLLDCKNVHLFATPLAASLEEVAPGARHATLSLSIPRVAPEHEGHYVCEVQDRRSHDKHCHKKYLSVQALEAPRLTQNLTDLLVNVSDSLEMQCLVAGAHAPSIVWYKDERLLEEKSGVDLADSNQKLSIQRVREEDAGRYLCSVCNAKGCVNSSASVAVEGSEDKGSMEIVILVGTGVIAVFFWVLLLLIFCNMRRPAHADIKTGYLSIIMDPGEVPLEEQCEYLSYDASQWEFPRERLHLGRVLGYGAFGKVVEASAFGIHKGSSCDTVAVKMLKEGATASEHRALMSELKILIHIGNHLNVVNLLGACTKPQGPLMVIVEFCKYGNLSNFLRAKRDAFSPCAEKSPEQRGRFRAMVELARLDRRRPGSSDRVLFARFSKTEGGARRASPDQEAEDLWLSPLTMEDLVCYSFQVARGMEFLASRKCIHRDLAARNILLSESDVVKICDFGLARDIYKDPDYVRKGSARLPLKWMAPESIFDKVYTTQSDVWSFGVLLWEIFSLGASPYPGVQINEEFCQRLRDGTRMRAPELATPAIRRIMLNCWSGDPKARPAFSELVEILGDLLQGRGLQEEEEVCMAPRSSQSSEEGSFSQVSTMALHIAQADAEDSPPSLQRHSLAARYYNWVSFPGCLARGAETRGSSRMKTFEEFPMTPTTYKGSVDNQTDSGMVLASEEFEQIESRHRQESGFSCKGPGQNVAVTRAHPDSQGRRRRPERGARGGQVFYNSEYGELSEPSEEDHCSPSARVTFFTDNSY
T1 sequence (P16234 24-1089): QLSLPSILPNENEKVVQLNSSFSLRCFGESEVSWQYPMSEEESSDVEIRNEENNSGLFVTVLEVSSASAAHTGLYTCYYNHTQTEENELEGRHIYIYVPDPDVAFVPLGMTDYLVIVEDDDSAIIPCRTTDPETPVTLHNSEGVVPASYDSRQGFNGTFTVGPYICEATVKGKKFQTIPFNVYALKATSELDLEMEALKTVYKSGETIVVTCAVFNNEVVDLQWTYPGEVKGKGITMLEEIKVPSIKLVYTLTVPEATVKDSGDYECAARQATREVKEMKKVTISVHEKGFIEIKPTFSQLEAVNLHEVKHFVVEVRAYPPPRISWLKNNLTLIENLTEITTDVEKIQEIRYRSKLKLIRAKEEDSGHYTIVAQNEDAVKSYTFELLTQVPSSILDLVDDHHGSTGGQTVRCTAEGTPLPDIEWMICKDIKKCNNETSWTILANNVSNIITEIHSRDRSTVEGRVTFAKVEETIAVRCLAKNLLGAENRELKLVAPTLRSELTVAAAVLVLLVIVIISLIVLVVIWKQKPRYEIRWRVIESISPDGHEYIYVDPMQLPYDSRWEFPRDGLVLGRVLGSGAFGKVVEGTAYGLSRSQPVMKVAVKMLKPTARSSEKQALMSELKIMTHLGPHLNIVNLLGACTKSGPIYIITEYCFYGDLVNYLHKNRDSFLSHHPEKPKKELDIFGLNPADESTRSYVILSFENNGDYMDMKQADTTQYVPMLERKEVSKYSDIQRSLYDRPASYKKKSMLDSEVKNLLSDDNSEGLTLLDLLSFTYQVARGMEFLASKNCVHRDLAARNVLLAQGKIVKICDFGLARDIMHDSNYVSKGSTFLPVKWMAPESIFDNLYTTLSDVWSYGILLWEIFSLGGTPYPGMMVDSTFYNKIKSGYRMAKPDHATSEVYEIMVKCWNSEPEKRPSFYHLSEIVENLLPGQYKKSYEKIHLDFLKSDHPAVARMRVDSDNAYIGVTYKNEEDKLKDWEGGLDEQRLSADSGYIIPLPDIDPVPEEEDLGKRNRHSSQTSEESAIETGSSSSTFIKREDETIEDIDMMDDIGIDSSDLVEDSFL

In the case of `COCc1ccc(NC(=O)c2c(C#CCN3CCOCC3)n(C3(C)CC3)c3ncnc(N)c23)cc1` [Vepafestinib, 4-amino-N-[4-(methoxymethyl)phenyl]-7-(1-methylcyclopropyl)-6-[3-(morpholin-4-yl)prop-1-yn-1-yl]-7H-pyrrolo[2,3-d]pyrimidine-5-carboxamide], the “% Inhibiton PDGFRα” value [1] is reported as 12.4%, the “% Inhibiton FLT4” value [2] is reported as 46.9% and the “kinases inhibited by >50%” value [3] is reported as “one and RET was the only kinase inhibited by >50%”. For the same compound, the GI50 ([4]; Ba/3-KIF5B-RET-G810S) was 14.7 nM and 13.1 nM, the GI50 ([4]; Mus musculus, BaF3, Ba/3-KIF5B-RET-G810S) was 7.93 nM and the GI50 ([5]; Ba/3-KIF5B-RET-V804M) was 38.7 nM. The GI50 ([5]; Mus musculus, BaF3, Ba/3-KIF5B-RET-V804M) was 44.8 nM, the “suppression of phosphorylation of RET^G810R, RET^G810S and RET^G810C” value [6] was “near-complete inhibition” and the EC50 ([7]; read-out: EC50 for Inhibition of Protein Phosphorylation (95% CI), AKT S473) was 1.4 nM. It also gave an EC50 ([7]; read-out: EC50 for Inhibition of Protein Phosphorylation (95% CI), ERK1/2 T202/Y204) of 0.9 nM, an EC50 ([7]; read-out: EC50 for Inhibition of Protein Phosphorylation (95% CI), MEK1/2 S217/S221) of 1.5 nM and an EC50 ([7]; read-out: EC50 for Inhibition of Protein Phosphorylation (95% CI), P70 RSK T421/S424) of 4.9 nM. For the same compound, the EC50 ([7]; read-out: EC50 for Inhibition of Protein Phosphorylation (95% CI), RET Y905) was 1.3 nM, the EC50 ([7]; read-out: EC50 for Inhibition of Protein Phosphorylation (95% CI), S6RP S235/S236) was 15 nM and the “raw viability signal (Source Data Fig. 3b-c)” value (from here on “raw viability signal”) (HBECp53-EV cells; 0.01 nM) was 27037 and 29740.2. For the same compound, the “raw viability signal” value (HBECp53-EV cells; 0.1 nM) was 19425.3 (2×) and 27020.1 and 29597.7, the “raw viability signal” value (HBECp53-EV cells; 1 nM) was 18975.7 (2×) and 23808.3 and 29292.2 and the “raw viability signal” value (HBECp53-EV cells; 10 nM) was 19412.6 (2×) and 25517.4 and 26617.3. For the same compound, the “raw viability signal” value (HBECp53-EV cells; 100 nM) was 19354.5 (2×) and 27120.8 and 27640.4, the “raw viability signal” value (HBECp53-EV cells; 1000 nM) was 20047.9 (2×) and 18738.8 and 27632.3 and the “raw viability signal” value (HBECp53-EV cells; 10000 nM) was 7853.82 (2×) and 1053.31 and 23430.8. The IC50 (HBECp53-EV cells; [8]) was 7900 nM, the IC50 (LC-2/ad cells; Homo sapiens, LC-2-ad, 96 h, read-out: IC50 for Inhibition of Growth (95% CI)) was 15 nM and the “raw viability signal” value (LC-2/ad cells; 0.01 nM) was 13380.1 and 23532.8. For the same compound, the “raw viability signal” value (LC-2/ad cells; 0.1 nM) was 13890.3 and 20497.1, the “raw viability signal” value (LC-2/ad cells; 1 nM) was 12571.5 and 21458.9 and the “raw viability signal” value (LC-2/ad cells; 10 nM) was 6299.39 and 16710. For the same compound, the “raw viability signal” value (LC-2/ad cells; 100 nM) was 4794.24 and 3373.89, the “raw viability signal” value (LC-2/ad cells; 1000 nM) was 5340.72 and 2243.82 and the “raw viability signal” value (LC-2/ad cells; 10000 nM) was 3810.66 and 1837.55. For the same compound, the IC50 (LUAD-0057BS1 cells; [8]) was 60 nM, the “raw viability signal” value (LUAD-0057BS1 cells; 0.01 nM) was 17419.2 and 15925.4 and 18689.8 and 23015.1 and the “raw viability signal” value (LUAD-0057BS1 cells; 0.1 nM) was 17721.3 and 15866.4 and 19298.6 and 21993.3. For the same compound, the “raw viability signal” value (LUAD-0057BS1 cells; 1 nM) was 17137.9 and 16657.5 and 19117.5 and 21130.9, the “raw viability signal” value (LUAD-0057BS1 cells; 10 nM) was 14331 and 15273.4 and 17077.7 and 19439.8 and the “raw viability signal” value (LUAD-0057BS1 cells; 100 nM) was 7158.2 and 6135.51 and 7993.83 and 7600.63. For the same compound, the “raw viability signal” value (LUAD-0057BS1 cells; 1000 nM) was 3333.45 and 1678.22 and 2095.91 and 2070.83, the “raw viability signal” value (LUAD-0057BS1 cells; 10000 nM) was 2605.9 and 881.24 and 1045.29 and 1424.56 and the IC50 (LUAD-0086AS3 cells; [8]) was 116 nM. The “raw viability signal” value (LUAD-0086AS3 cells; 0.01 nM) was 16237.2 and 19485.2 and 18210.6, the “raw viability signal” value (LUAD-0086AS3 cells; 0.1 nM) was 16457.6 and 20449.8 and 20222 and the “raw viability signal” value (LUAD-0086AS3 cells; 1 nM) was 16743.2 and 19056.2 and 19367.3. For the same compound, the “raw viability signal” value (LUAD-0086AS3 cells; 10 nM) was 12680.1 and 18071 and 16933, the “raw viability signal” value (LUAD-0086AS3 cells; 100 nM) was 5830.14 and 9884.36 and 9286.4 and the “raw viability signal” value (LUAD-0086AS3 cells; 1000 nM) was 6803.13 and 8603.1 and 8594.97. For the same compound, the “raw viability signal” value (LUAD-0086AS3 cells; 10000 nM) was 3602.32 and 4605.44 and 4993.57, the IC50 (LUAD-0087AS2 cells; [8]) was 52 nM and the “raw viability signal” value (LUAD-0087AS2 cells; 0.01 nM) was 11228 and 14615.9 and 14016.7 and 14250.8. For the same compound, the “raw viability signal” value (LUAD-0087AS2 cells; 0.1 nM) was 11523.4 and 15236.1 and 13636.1 and 15169.5, the “raw viability signal” value (LUAD-0087AS2 cells; 1 nM) was 9899.07 and 15123.8 and 13931.5 and 14165.7 and the “raw viability signal” value (LUAD-0087AS2 cells; 10 nM) was 10547.8 and 8202.29 and 13996.8 and 13713.3. The “raw viability signal” value (LUAD-0087AS2 cells; 100 nM) was 5765.45 and 5334.21 and 3421.1 and 4734.04, the “raw viability signal” value (LUAD-0087AS2 cells; 1000 nM) was 2843.25 and 5162.03 and 1552.19 and 1343.68 and the “raw viability signal” value (LUAD-0087AS2 cells; 10000 nM) was 1385.86 and 3882.23 and 977.192 and 943.954.
